Blank lines part the entries; values can stand above or below the compound they belong to.
Experiments:
[1] = Stability and PEA release in 80% v/v rat plasma; format: in vitro ADME
Experimental: (§1) The chemical and metabolic stability of PEA and all prodrugs were studied by incubating each compound (5 μL of a […] solution in DMSO, or DMSO as control) with 495 μL of 10 mM phosphate buffered saline pH 7.4 for chemical stability, 80% v/v rat plasma or 20% w/v rat liver homogenate prepared accordingly to previously described procedures for metabolic stability, reaching a final concentration of 50 nm for the test compound.
(§2) Rat plasma and liver samples were pre-incubated at 37°C for 10 min before adding the compounds. After incubation for different time periods (0, 15, 30, 60, 120, 240 and 360 min), samples were deproteinized by adding 100 μL of acetonitrile with 75 nmol L^-1 IS (PEA-d4). The samples were centrifuged (14 000 g, 10 min, 4°C), and the supernatants were analyzed by HPLC–ESI–MS/MS. For each tested compound, a multiple reaction monitoring (MRM) ESI–MS/MS method was set up in order to monitor the relative concentration of compound and released PEA at the different incubation times, compared to the time t = 0, in rat plasma and liver homogenate.
Cmax and tmax in rat plasma were read from the raw data as the coordinates of the highest concentration observed. A Thermo TSQ Quantum triple-quadrupole mass spectrometer (Thermo Italia, Milan, Italy) with heated electrospray ionization (H-ESI) ion source was used for mass detection and analysis. Mass spectrometric analyses were done in positive ion mode. H-ESI interface parameters were set as follows: probe middle (D) position; capillary temperature 270°C; spray voltage 3.0 kV. Nitrogen was used as nebulizing gas at the following pressure: sheath gas 35 psi; auxiliary gas 15 arbitrary units (a.u.). Argon was used as the collision gas at a pressure of approximately 1.5 mtorr (1 torr = 133.3 Pa). For quantitative analysis, the following parent ion → product ions transitions were selected: PEA (1): m/z 300.2 → m/z 62.3 (tube lens 60 V; collision energy 19 eV); PEA-d4 (Internal Standard): m/z 304.2 → m/z 66.3 + m/z 287.2 (tube lens 72 V; collision energy 15, 12 eV). MRM transitions, tube lens voltages and collision energies for compounds 3–5, 7–9, 19–24, 26–31, and 33 are reported in the S1 File. […] The coefficients of correlation (r^2) were >0.99 for all curves. The LOQ was 1 nmol mL^−1 for all analytes. Extraction efficiency was determined by comparing the peak area ratio of spiked samples at three concentration levels (low, intermediate, and high) to those of extracted charcoal treated blank plasma spiked with the corresponding concentrations. The mean extraction recovery ranged from 109% to 91% for all compounds. The specificity of the assay was evaluated by comparison of HPLC–ESI–MS/MS chromatograms of the analytes at the LOQ to those of charcoal treated blank plasma samples in triplicate.

[2] = Chemical stability in phosphate buffered saline pH 7.4; format: physicochemical; details: percent remaining after 6 h of incubation at 37°C in PBS buffer pH 7.4
Experimental: as §1, §2

[3] = Beagle dogs, oral 30 mg kg-1; cited from earlier work
[4] = Stability in 20% w/v rat liver homogenate; format: in vitro ADME
Experimental: as §1, §2

[5] = Plasma levels after oral administration to Wistar rats; format: in vivo, rat; details: for AUC(0-t): Wistar, administered compound, mean±SEM, read-out: AUC0- 480 (converted); for AUC(0-t) / Cmax of administered compound in rat plasma / Time of Cmax of administered compound in rat plasma: p.o.; for Cmax of administered compound in rat plasma / Time of Cmax of administered compound in rat plasma: PEA 100 mg kg-1, 20, 28 145 mg kg-1
Experimental: Twenty-seven male Wistar rats (Charles River Laboratories, Italy), 150–250 g in weight, were used in the study. Number of animals was calculated by G-power a priori analysis (α = 0.05 and β = 0.05). Animals were housed in group in policarbonate cages (Tecniplast, Italy) in a conventional facility with controlled temperature 22±1°C, a relative humidity of 55±5%, and a 12 h light/dark cycle (6:00 am to 6:00 pm). The rats were provided standard pellet diet (4RF21 GLP Mucedola, Italy) and water ad libitum throughout the study. The experiments were started only after acclimatization of animals to the laboratory conditions. Before the experiments, rats were fasted for 18 h, with free access to drinking water. Animals were randomized in three experimental groups (nine animals for each group) receiving respectively L-Val-PEA (20), D-Val-PEA (28) and PEA (1).
The day of the experiments substances were turned into a corn oil suspension, after ultrasound and vortexing and they were administered to rats between 8.00 and 10.00 am by gastric gavage at the equimolar doses of 145 mg kg^-1 for L- and D-Val-PEA (20, 28) and 100 mg kg^-1 of PEA (1). Blood samples were collected via sub-tongue puncture from each anaesthetized rat (2% isofluran in air) to minimize any suffering. Blood samples of 0.2 mL were collected before treatment and at 15, 30, 60, 120, 240, 360 and 480 min post-dosing into EDTA-treated tubes (Sarstedt, Germany), immediately centrifuged (5000 rpm, 10 min, 4°C; refrigerated microcentrifuge Z 216 MK, Hermle LaborTechnik). Resulting plasma was immediately processed by protein precipitation with ice-cold acetonitrile containing the IS 75 nmol L^-1 (PEA-d4) and analyzed as previously described. AUC values were calculated employing the software add-ons of Microsoft Excel.

liver FAAH = test system: liver FAAH; parameters: method as in PMID 17217969; details: cited from earlier work
[6] = test system: amidase activity in rat liver homogenate; format: biochemical
Text: Fig 8 Role of amidase activity on compound degradation in rat liver homogenate.

[7] = after addition of 25 pmol of PEA, 80% v/v rat plasma

PEA concentration in rat plasma after 1 h [1, 7]: 56.2 ± 4.3 nM
PEA concentration in rat plasma after 6 h [1, 7]: 44.0 ± 3.2 nM
PEA concentration in rat plasma at starting point [1, 7]: 71.9 ± 2.1 nM
remaining at 6 h, 50 nM ([1]; pH 7.4, 80% v/v rat plasma, 37°C, 6 h, read-out: Percent remaining after 6 h incubation in rat plasma): 70 ± 2%
%Compd at 6 h, pH 7.4 [2]: 95 ± 1%
%Compd at 6 h, pH 7.4 ([2]; listed as PEA): 95%
PEA concentration in rat liver homogenate after 120 min ([4]; no detectable basal PEA levels): 4.0 ± 1.2 nM
half-life at 50 nM ([4]; rat, 20% w/v rat liver homogenate, rat liver homogenate, 37°C, read-out: Rat Liver Compd t 1/2): ~0.417 h
AUC(0-t) ([5]; male, rat, plasma, po, n = 9): 109 ng·h/mL
Increase of PEA basal plasma values at Cmax ([5]; p.o. PEA 100 mg kg-1, 15 min): 20 fold
Cmax of administered compound in rat plasma [5]: 420 ± 132 nm
Time of Cmax of administered compound in rat plasma [5]: 15 min
SMILES: CCCCCCCCCCCCCCCC(=O)NCCO [compound 1, Palmitoylethanolamide, reference compound]
Increase in basal plasma levels at Cmax [3]: five-fold increase
Time of maximal plasma concentration (Cmax) [3]: 1 to 2 h

SMILES: NC(=O)c1cccc(-c2cccc(OC(=O)NC3CCCCC3)c2)c1 [URB597, cyclohexylcarbamic acid 3'-carbamoylbiphenyl-3-yl ester]
IC50 (liver FAAH): ~3 nM
Effect on PEA hydrolysis ([6]; URB597 10 μm pre-incubation): complete inhibition of PEA hydrolysis
Effect on conversion of 20 into PEA ([6]; URB597 10 μm pre-incubation): quantitative conversion of 20 into PEA
Effect on PEA concentrations vs control incubations of PEA and 20 ([6]; URB597 100 nm, 10 min pretreatment, p<0.05): partial, but statistically significant, increase of PEA concentrations

Rat plasma half-life relative to L-Val-PEA (20) ([1]; rat plasma): over 6 fold
half-life at 50 nM ([1]; rat, 80% v/v rat plasma, pH 7.4, 80% v/v rat plasma, 37°C, 50 nm compound, read-out: Rat Plasma Compd t 1/2): 2.88 ± 0.0667 h
%Compd at 6 h, pH 7.4 [2]: 87 ± 2%
remaining at 2 h, 50 nM ([4]; rat, 20% w/v rat liver homogenate, 37°C, 2 h, read-out: Percent remaining after 2 h incubation in rat liver homogenate): 67 ± 9%
AUC(0-t) ([5]; male, rat, plasma, po, n = 9): 231 ng·h/mL
concentration at 15 min ([5]; male, rat, plasma, po, p.o. 145 mg kg-1, Wistar rats, mean ± SEM, n = 9, read-out: Prodrug Conc in plasma, 15 min): 907 nM
concentration at 30 min ([5]; male, rat, plasma, po, p.o. 145 mg kg-1, Wistar rats, mean ± SEM, n = 9, read-out: Prodrug Conc in plasma, 30 min): 280 nM
concentration at 60 min ([5]; male, rat, plasma, po, p.o. 145 mg kg-1, Wistar rats, mean ± SEM, n = 9, read-out: Prodrug Conc in plasma, 60 min): 65.9 nM
concentration at 120 min ([5]; male, rat, plasma, po, p.o. 145 mg kg-1, Wistar rats, mean ± SEM, n = 9, read-out: Prodrug Conc in plasma, 120 min): 56.4 nM
concentration at 240 min ([5]; male, rat, plasma, po, p.o. 145 mg kg-1, Wistar rats, mean ± SEM, n = 9, read-out: Prodrug Conc in plasma, 240 min): 39.9 nM
concentration at 360 min ([5]; male, rat, plasma, po, p.o. 145 mg kg-1, Wistar rats, mean ± SEM, n = 9, read-out: Prodrug Conc in plasma, 360 min): 11.4 nM
concentration at 480 min ([5]; male, rat, plasma, po, p.o. 145 mg kg-1, Wistar rats, mean ± SEM, n = 9, read-out: Prodrug Conc in plasma, 480 min): 10.1 nM
Cmax of administered compound in rat plasma [5]: 907 nm
Time of Cmax of administered compound in rat plasma [5]: 15 min
SMILES: CCCCCCCCCCCCCCCC(=O)NCCOC(=O)[C@H](N)C(C)C.Cl [compound 28, 2-(Palmitoylamino)ethyl D-valinate hydrochloride]
